ChEMBL document CHEMBL4706485, “Development of cell-permeable peptide-based PROTACs targeting estrogen receptor α” (Eur J Med Chem, 2020)
Active and inactive are the calls of the source. No cut-off for these calls is given here. Square brackets hold non-standard residues; d marks the D form. Peptide text beside a SMILES is read from it. Hyp = O=C(O)[C@@H]1C[C@@H](O)CN1; Ahx = NCCCCCC(=O)O

Key:
MCF7 [1] = experiment: Cytotoxicity against human MCF7 cells assessed as reduction in cell viability at 20 uM after 48 hrs by MTT assay; format: functional, cell-based
[2] = target: von Hippel-Lindau disease tumor suppressor/Estrogen receptor (Homo sapiens) (UniProt P03372+P40337); experiment: Protac activity at VHL/ERalpha in human MCF7 cells assessed as degradation of ERalpha protein level at 10 uM after 12 hrs by Western blot analysis; format: cell-based
[3] = Drug uptake in human MCF7 cells at 10 uM FITC labelled form of compound after 12 hrs by flow cytometric analysis; format: ADME, cell-based; settings: mcf7, 12 h
MCF7 [4] = experiment: Induction of apoptosis in human MCF7 cells assessed as viable cells at 10 uM after 12 hrs by annexinV-FITC/PI staining based flow cytometric analysis (reference value: 95.4 to 97.6%); format: functional; settings: read-out: Activity
MCF7 [5] = experiment: Induction of apoptosis in human MCF7 cells assessed as early apoptotic cells at 10 uM after 12 hrs by annexinV-FITC/PI staining based flow cytometric analysis (reference value: 0.8 to 1.6%); format: functional
MCF7 [6] = experiment: Induction of apoptosis in human MCF7 cells assessed as late apoptotic cells at 10 uM after 12 hrs by annexinV-FITC/PI staining based flow cytometric analysis (reference value: 0.9 to 1.9%); format: functional
MCF7 [7] = experiment: Induction of apoptosis in human MCF7 cells assessed as necrotic cells at 10 uM after 12 hrs by annexinV-FITC/PI staining based flow cytometric analysis (reference value: 0.7 to 1.1%); format: functional
MCF7 [8] = experiment: Cytotoxicity against human MCF7 cells assessed as reduction in cell viability at 5 to 80 uM after 48 hrs by MTT assay; format: functional, cell-based; settings: dose 5-80 µM
4T1 = experiment: Antitumour activity against mouse 4T1 cells implanted in BALB/c mouse assessed as inhibition in tumor growth at 10 umol/kg administered peri-tumor injection for 21 days relative to control; format: functional; settings: 4T1, 504 h, time 21 day, read-out: TGI
[9] = Toxicity in BALB/c mouse implanted with mouse 4T1 cells assessed as change in body weight at 10 umol/kg administered peri-tumor injection for 21 days; settings: in vivo, other, 504 h, dose 10 µmol/kg, time 21 day

von Hippel-Lindau disease tumor suppressor/Estrogen receptor (Homo sapiens), sequence (P03372 whole entry, looked up): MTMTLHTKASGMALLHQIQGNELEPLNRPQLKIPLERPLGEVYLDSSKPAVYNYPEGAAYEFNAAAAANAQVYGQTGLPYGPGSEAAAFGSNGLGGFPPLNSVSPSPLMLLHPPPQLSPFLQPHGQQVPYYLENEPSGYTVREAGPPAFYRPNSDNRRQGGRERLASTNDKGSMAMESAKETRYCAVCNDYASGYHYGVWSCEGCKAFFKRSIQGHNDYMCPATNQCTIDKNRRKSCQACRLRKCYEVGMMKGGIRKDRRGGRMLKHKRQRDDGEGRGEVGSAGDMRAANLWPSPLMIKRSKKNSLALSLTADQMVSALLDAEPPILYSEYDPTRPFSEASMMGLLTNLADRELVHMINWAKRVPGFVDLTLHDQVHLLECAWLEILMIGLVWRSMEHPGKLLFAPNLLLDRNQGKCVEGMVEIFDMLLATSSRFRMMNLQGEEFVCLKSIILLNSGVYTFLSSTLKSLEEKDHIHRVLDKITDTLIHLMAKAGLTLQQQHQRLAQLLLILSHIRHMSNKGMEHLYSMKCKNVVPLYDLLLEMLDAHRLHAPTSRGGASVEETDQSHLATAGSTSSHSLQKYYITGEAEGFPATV
von Hippel-Lindau disease tumor suppressor/Estrogen receptor (Homo sapiens), sequence (P40337 whole entry, looked up): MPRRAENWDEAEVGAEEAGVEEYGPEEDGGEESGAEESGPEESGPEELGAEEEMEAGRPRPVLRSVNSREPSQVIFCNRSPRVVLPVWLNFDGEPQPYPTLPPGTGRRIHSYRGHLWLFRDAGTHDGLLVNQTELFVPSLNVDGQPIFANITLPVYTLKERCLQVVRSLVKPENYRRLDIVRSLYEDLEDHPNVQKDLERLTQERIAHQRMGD

| Compound | Activity (MCF7 [1]) | Activity [2] | Drug uptake [3] | viability at 10 µM (MCF7 [4]) [%] | Activity (MCF7 [5]) [%] | Activity (MCF7 [6]) [%] | Activity (MCF7 [7]) [%] | Activity (MCF7 [8]) | inhibition in vivo at 10 µmol/kg (4T1) [%] | Activity [9] |
| --- | --- | --- | --- | --- | --- | --- | --- | --- | --- | --- |
| CC[C@H](C)[C@H](NC(=O)[C@H](Cc1ccc(O)cc1)NC(=O)[C@@H]1C[C@@H](O)CN1C(=O)[C@H](C)NC(=O)[C@H](CC(C)C)NC(=O)CCCCCNC(=O)[C@H](CCC(N)=O)NC(=O)[C@H](CC(C)C)NC(=O)[C@H](CC(C)C)NC(=O)[C@H](CCCNC(=N)N)NC(=O)[C@H](Cc1c[nH]cn1)NC(=O)[C@H](CC(C)C)NC(=O)[C@@H](NC(=O)[C@H](CCCCN)NC(=O)[C@@H](N)Cc1c[nH]cn1)[C@@H](C)CC)C(N)=O (H-HKILHRLLQ[Ahx]LA[Hyp]YI-NH2) | Active | Active | Active | 93.4 | 0.9 | 2.7 | 2.9 |  |  |  |
| CC[C@H](C)[C@H](NC(=O)[C@H](Cc1ccc(O)cc1)NC(=O)[C@@H]1C[C@@H](O)CN1C(=O)[C@H](C)NC(=O)[C@H](CC(C)C)NC(=O)CCCCCNC(=O)[C@H](CCC(N)=O)NC(=O)[C@H](CC(C)C)NC(=O)[C@H](CC(C)C)NC(=O)[C@H](CCCNC(=N)N)NC(=O)[C@@H]1CNC(=O)C(N[C@@H](CCCNC(=N)N)C(N)=O)CC(=O)N[C@@H]([C@@H](C)CC)C(=O)NC(CC(C)(C)C)C(=O)N1)C(N)=O (stereo not given in full) |  | Active | Active | 80.2 | 0.7 | 7.1 | 11.9 | Active |  |  |
| CC[C@H](C)[C@H](NC(=O)[C@H](Cc1ccc(O)cc1)NC(=O)[C@@H]1C[C@@H](O)CN1C(=O)[C@H](C)NC(=O)[C@H](CC(C)C)NC(=O)CCCCCNC(=O)[C@H](CCC(N)=O)NC(=O)[C@H](CC(C)C)NC(=O)[C@H](CC(C)C)NC(=O)[C@H](CCCNC(=N)N)NC(=O)[C@@H]1CNC(=O)C(N[C@@H](CCCNC(=N)N)C(N)=O)CC(=O)N[C@@H]([C@@H](C)CC)C(=O)N[C@@H](CC(C)C)C(=O)N1)C(N)=O (stereo not given in full) |  | Active | Active | 85 | 1.3 | 5.8 | 8 | Active | 52 | Non-Toxic |
| CC[C@H](C)[C@H](NC(=O)[C@H](Cc1ccc(O)cc1)NC(=O)[C@@H]1C[C@@H](O)CN1C(=O)[C@H](C)NC(=O)[C@H](CC(C)C)NC(=O)CCCCCNC(=O)[C@H](CCC(N)=O)NC(=O)C(CC(C)(C)C)NC(=O)[C@H](CC(C)C)NC(=O)[C@H](CCCNC(=N)N)NC(=O)[C@@H]1CNC(=O)C(N[C@@H](CCCNC(=N)N)C(N)=O)CC(=O)N[C@@H]([C@@H](C)CC)C(=O)N[C@@H](CC(C)C)C(=O)N1)C(N)=O (stereo not given in full) |  | Active | Active | 76.7 | 0.4 | 7.7 | 15.2 | Active |  |  |
